Numbers after ± are expanded uncertainties.
Assay: xn = mol fraction of the nth substance listed

CC1CCC(=O)O1 (stereo not given) [γ-valerolactone] + O=C=O
Fluid (supercritical or subcritical phases), Pycnometric method
Conditions	mass density [kg/m3]
313.2 K, 10860 kPa, x1 = 0.1	942 ± 5
313.2 K, 10880 kPa, x1 = 0.025	833 ± 5
313.2 K, 11030 kPa, x1 = 0.01	778 ± 6
313.2 K, 11160 kPa, x1 = 0.025	840 ± 6
313.2 K, 11200 kPa, x1 = 0.05	872 ± 5
313.2 K, 11230 kPa, x1 = 0.15	981 ± 4
313.2 K, 11440 kPa, x1 = 0.01	789 ± 6
313.2 K, 11450 kPa, x1 = 0.025	846 ± 4
313.2 K, 11640 kPa, x1 = 0.1	949 ± 4
313.2 K, 11660 kPa, x1 = 0.05	878 ± 5
313.2 K, 11770 kPa, x1 = 0.025	852 ± 5
313.2 K, 11850 kPa, x1 = 0.15	985 ± 4
313.2 K, 11950 kPa, x1 = 0.01	802 ± 6
313.2 K, 12460 kPa, x1 = 0.15	987 ± 4
313.2 K, 12490 kPa, x1 = 0.1	956 ± 4
313.2 K, 13220 kPa, x1 = 0.15	992 ± 4
313.2 K, 13510 kPa, x1 = 0.1	964 ± 4
313.2 K, 13960 kPa, x1 = 0.15	995 ± 4
313.2 K, 14650 kPa, x1 = 0.15	999 ± 4
313.2 K, 15420 kPa, x1 = 0.15	1002 ± 4
313.2 K, 16160 kPa, x1 = 0.15	1006 ± 4
313.2 K, 16920 kPa, x1 = 0.15	1009 ± 4
316.2 K, 8740 kPa, x1 = 0.025	683 ± 17
316.2 K, 8760 kPa, x1 = 0.025	687 ± 16
316.2 K, 8790 kPa, x1 = 0.025	692 ± 16
316.2 K, 8810 kPa, x1 = 0.025	696 ± 14
316.2 K, 8830 kPa, x1 = 0.025	700 ± 12
316.2 K, 8880 kPa, x1 = 0.025	704 ± 15
316.2 K, 8910 kPa, x1 = 0.025	709 ± 24
316.2 K, 8960 kPa, x1 = 0.025	713 ± 12
316.2 K, 8990 kPa, x1 = 0.025	718 ± 9
316.2 K, 9060 kPa, x1 = 0.025	723 ± 9
316.2 K, 9110 kPa, x1 = 0.025	728 ± 9
316.2 K, 9180 kPa, x1 = 0.025	732 ± 10
316.2 K, 9250 kPa, x1 = 0.025	737 ± 9
316.2 K, 9320 kPa, x1 = 0.025	742 ± 6
316.2 K, 9410 kPa, x1 = 0.025	747 ± 9
316.2 K, 9500 kPa, x1 = 0.025	752 ± 9
316.2 K, 9590 kPa, x1 = 0.025	758 ± 8
316.2 K, 9700 kPa, x1 = 0.025	762 ± 8
316.2 K, 9800 kPa, x1 = 0.025	768 ± 7
316.2 K, 9930 kPa, x1 = 0.025	772 ± 6
316.2 K, 10060 kPa, x1 = 0.025	778 ± 7
316.2 K, 10210 kPa, x1 = 0.025	783 ± 6
316.2 K, 10360 kPa, x1 = 0.025	788 ± 6
316.2 K, 10520 kPa, x1 = 0.025	794 ± 6
316.2 K, 10720 kPa, x1 = 0.025	800 ± 6
316.2 K, 10910 kPa, x1 = 0.025	806 ± 6
316.2 K, 11110 kPa, x1 = 0.025	812 ± 6
316.2 K, 11350 kPa, x1 = 0.025	818 ± 5
316.2 K, 11610 kPa, x1 = 0.025	824 ± 5
316.2 K, 11880 kPa, x1 = 0.025	830 ± 5
316.2 K, 12200 kPa, x1 = 0.025	836 ± 5
316.2 K, 12480 kPa, x1 = 0.025	842 ± 5
318 K, 9060 kPa, x1 = 0.01	519 ± 22
318 K, 9080 kPa, x1 = 0.01	522 ± 22
318 K, 9090 kPa, x1 = 0.01	525 ± 21
318 K, 9110 kPa, x1 = 0.01	529 ± 21
318 K, 9120 kPa, x1 = 0.01	532 ± 21
318 K, 9140 kPa, x1 = 0.01	535 ± 22
318 K, 9180 kPa, x1 = 0.01	542 ± 22
318 K, 9180 kPa, x1 = 0.15	949 ± 4
318 K, 9190 kPa, x1 = 0.025	680 ± 38
318 K, 9220 kPa, x1 = 0.01	549 ± 10
318 K, 9230 kPa, x1 = 0.025	683 ± 47
318 K, 9250 kPa, x1 = 0.01	556 ± 20
318 K, 9260 kPa, x1 = 0.025	688 ± 42
318 K, 9270 kPa, x1 = 0.05	776 ± 19
318 K, 9290 kPa, x1 = 0.01	563 ± 20
318 K, 9290 kPa, x1 = 0.025	692 ± 37
318 K, 9330 kPa, x1 = 0.01	570 ± 19
318 K, 9330 kPa, x1 = 0.05	782 ± 17
318 K, 9340 kPa, x1 = 0.025	696 ± 21
318 K, 9380 kPa, x1 = 0.01	578 ± 18
318 K, 9380 kPa, x1 = 0.025	700 ± 20
318 K, 9410 kPa, x1 = 0.05	787 ± 9
318 K, 9410 kPa, x1 = 0.1	894 ± 10
318 K, 9430 kPa, x1 = 0.01	586 ± 18
318 K, 9430 kPa, x1 = 0.025	705 ± 17
318 K, 9480 kPa, x1 = 0.01	593 ± 17
318 K, 9480 kPa, x1 = 0.025	709 ± 16
318 K, 9480 kPa, x1 = 0.05	792 ± 8
318 K, 9490 kPa, x1 = 0.15	952 ± 4
318 K, 9530 kPa, x1 = 0.025	714 ± 17
318 K, 9540 kPa, x1 = 0.01	602 ± 10
318 K, 9540 kPa, x1 = 0.1	896 ± 7
318 K, 9590 kPa, x1 = 0.025	718 ± 16
318 K, 9600 kPa, x1 = 0.05	797 ± 8
318 K, 9610 kPa, x1 = 0.01	611 ± 14
318 K, 9660 kPa, x1 = 0.025	723 ± 16
318 K, 9690 kPa, x1 = 0.01	619 ± 13
318 K, 9730 kPa, x1 = 0.025	728 ± 12
318 K, 9730 kPa, x1 = 0.1	900 ± 5
318 K, 9760 kPa, x1 = 0.05	803 ± 7
318 K, 9800 kPa, x1 = 0.01	631 ± 11
318 K, 9800 kPa, x1 = 0.025	732 ± 12
318 K, 9860 kPa, x1 = 0.025	737 ± 12
318 K, 9880 kPa, x1 = 0.1	903 ± 5
318 K, 9930 kPa, x1 = 0.01	642 ± 13
318 K, 9940 kPa, x1 = 0.05	809 ± 6
318 K, 9940 kPa, x1 = 0.15	956 ± 4
318 K, 9950 kPa, x1 = 0.025	742 ± 11
318 K, 10020 kPa, x1 = 0.01	652 ± 10
318 K, 10050 kPa, x1 = 0.025	747 ± 8
318 K, 10080 kPa, x1 = 0.01	657 ± 9
318 K, 10130 kPa, x1 = 0.05	814 ± 5
318 K, 10140 kPa, x1 = 0.1	906 ± 5
318 K, 10150 kPa, x1 = 0.025	752 ± 10
318 K, 10260 kPa, x1 = 0.025	757 ± 15
318 K, 10320 kPa, x1 = 0.15	959 ± 4
318 K, 10340 kPa, x1 = 0.05	820 ± 5
318 K, 10340 kPa, x1 = 0.1	909 ± 5
318 K, 10380 kPa, x1 = 0.025	762 ± 17
318 K, 10500 kPa, x1 = 0.025	768 ± 8
318 K, 10600 kPa, x1 = 0.05	825 ± 5
318 K, 10610 kPa, x1 = 0.1	912 ± 6
318 K, 10640 kPa, x1 = 0.025	773 ± 6
318 K, 10750 kPa, x1 = 0.01	695 ± 8
318 K, 10800 kPa, x1 = 0.025	779 ± 6
318 K, 10850 kPa, x1 = 0.1	916 ± 4
318 K, 10870 kPa, x1 = 0.05	832 ± 6
318 K, 10920 kPa, x1 = 0.15	962 ± 4
318 K, 10960 kPa, x1 = 0.025	784 ± 5
318 K, 11040 kPa, x1 = 0.01	711 ± 8
318 K, 11120 kPa, x1 = 0.025	789 ± 7
318 K, 11140 kPa, x1 = 0.1	919 ± 5
318 K, 11160 kPa, x1 = 0.05	838 ± 5
318 K, 11320 kPa, x1 = 0.025	795 ± 10
318 K, 11440 kPa, x1 = 0.1	922 ± 4
318 K, 11470 kPa, x1 = 0.05	843 ± 5
318 K, 11480 kPa, x1 = 0.15	966 ± 4
318 K, 11520 kPa, x1 = 0.025	801 ± 6
318 K, 11740 kPa, x1 = 0.025	806 ± 6
318 K, 11750 kPa, x1 = 0.1	925 ± 4
318 K, 11860 kPa, x1 = 0.05	850 ± 5
318 K, 11950 kPa, x1 = 0.025	813 ± 5
318 K, 11960 kPa, x1 = 0.15	969 ± 4
318 K, 12090 kPa, x1 = 0.1	928 ± 4
318 K, 12210 kPa, x1 = 0.025	818 ± 5
318 K, 12240 kPa, x1 = 0.05	857 ± 5
318 K, 12490 kPa, x1 = 0.025	824 ± 5
318 K, 12600 kPa, x1 = 0.15	972 ± 4
318 K, 12670 kPa, x1 = 0.05	862 ± 5
318 K, 12770 kPa, x1 = 0.025	830 ± 5
318 K, 12780 kPa, x1 = 0.1	935 ± 4
318 K, 13080 kPa, x1 = 0.025	836 ± 5
318 K, 13090 kPa, x1 = 0.15	975 ± 4
318 K, 13150 kPa, x1 = 0.05	869 ± 5
318 K, 13490 kPa, x1 = 0.025	843 ± 5
318 K, 13580 kPa, x1 = 0.1	943 ± 4
318 K, 13710 kPa, x1 = 0.15	978 ± 4
318 K, 13740 kPa, x1 = 0.025	849 ± 5
318 K, 13850 kPa, x1 = 0.05	878 ± 5
318 K, 13990 kPa, x1 = 0.1	945 ± 5
318 K, 14310 kPa, x1 = 0.15	982 ± 4
318 K, 14380 kPa, x1 = 0.1	949 ± 5
318 K, 15060 kPa, x1 = 0.15	986 ± 4
318 K, 15680 kPa, x1 = 0.15	989 ± 4
318 K, 16350 kPa, x1 = 0.15	992 ± 4
318 K, 16950 kPa, x1 = 0.15	995 ± 4
322.9 K, 9850 kPa, x1 = 0.01	518 ± 17

mass density [kg/m3], high pressure variable cell
Conditions	x1 = 0.01	x1 = 0.025	x1 = 0.05	x1 = 0.1	x1 = 0.15
313.2 K, Liquid	539 ± 6	723 ± 6	803 ± 4	910 ± 4	961 ± 4
318 K, Gas	516 ± 4	677 ± 4	–	–	–
318 K, Liquid	–	–	–	891 ± 4	948 ± 4

From the NIST ThermoML archive (doi:10.1021/je8007759)
